Literature values as cited in patent US20040086873A1, “System and method of generating and storing correlated hyperquantified tissue structure and biomolecular expression datasets” (priority 2002, published 2004).

Details: 1000 mg/kg/day, intraperitoneal injection once a day, dissolved in corn oil (~15% v/v)

ClC(Cl)(Cl)Cl [CC14]
toxicity of the dose level (hepatotoxic / lethal): hepatotoxic but not lethal
